Laboratory results taken from patent US9370515B2, “Mixed lineage kinase inhibitors and method of treatments” (CALIFIA BIO, INC., priority 2013, dated 2016).

Target: MLK-3 (Homo sapiens, UniProt Q16584)
Test: Biochemical assay for the inhibition of kinase activity for MLK-3 (33P-ATP, HOTSPOT filter binding)
Conditions: activated MLK-3 20 nM, ATP 50 μM, myelin basic protein 20 μM, 20 minutes room temperature
Protocol: Biochemical Assay for the Inhibition of Kinase Activity for MLK-3: Myelin basic protein (20 μM final concentration) is dissolved in 20 mM Hepes (pH 7.5) containing […], […], 0.02% Brij35, 0.02 mg/ml BSA, 0.1 μM Na3VO4, 2 mM DTT, and 1% DMSO. Activated MLK-3 is added and mixed (20 nM final concentration), and inhibitors are added in DMSO. ^33P-ATP (specific activity 500 μCi/μL) is delivered into the reaction mixture to initiate the reaction (ATP concentration is 50 μM) and the mixture is incubated at room temperature for 20 minutes. % Activity is determined using a proprietary HOTSPOT™ microfluidic filter binding technology. See, Expert Opin. Drug Discov. 2008 June; 3(6): 607-621.

Sequence of MLK-3 (Q16584 whole entry): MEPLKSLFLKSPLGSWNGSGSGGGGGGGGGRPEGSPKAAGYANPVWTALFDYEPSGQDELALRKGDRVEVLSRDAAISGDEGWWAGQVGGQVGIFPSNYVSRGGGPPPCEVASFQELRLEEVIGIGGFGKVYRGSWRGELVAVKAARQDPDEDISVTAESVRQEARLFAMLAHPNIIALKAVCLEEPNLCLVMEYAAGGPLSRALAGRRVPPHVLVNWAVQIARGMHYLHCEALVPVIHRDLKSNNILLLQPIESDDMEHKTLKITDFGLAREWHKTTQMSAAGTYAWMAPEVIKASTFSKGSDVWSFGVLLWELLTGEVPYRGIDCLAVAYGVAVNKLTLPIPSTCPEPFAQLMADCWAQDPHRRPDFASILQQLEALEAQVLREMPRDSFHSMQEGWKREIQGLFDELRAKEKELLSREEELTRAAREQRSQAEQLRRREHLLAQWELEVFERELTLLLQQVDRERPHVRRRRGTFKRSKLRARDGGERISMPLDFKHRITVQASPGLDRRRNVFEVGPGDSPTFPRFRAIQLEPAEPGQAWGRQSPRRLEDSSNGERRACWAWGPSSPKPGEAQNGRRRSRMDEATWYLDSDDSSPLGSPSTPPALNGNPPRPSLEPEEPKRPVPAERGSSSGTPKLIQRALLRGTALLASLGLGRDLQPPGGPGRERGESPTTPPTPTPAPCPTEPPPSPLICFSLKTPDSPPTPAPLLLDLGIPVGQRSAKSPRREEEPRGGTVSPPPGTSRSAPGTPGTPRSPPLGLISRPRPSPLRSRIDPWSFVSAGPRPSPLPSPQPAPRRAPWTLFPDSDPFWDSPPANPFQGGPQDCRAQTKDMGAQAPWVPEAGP

IC50 [nM] | SMILES
100 to 500 | COc1ccc(Nc2ccc3ncc(-c4cc5cccc(OC(C)=O)c5s4)n3n2)cc1OC [Compound 78, 2-(6-(3,4-dimethoxyphenylamino)imidazo[1,2-b]pyridazin-3-yl)benzo[b]thiophen-7-yl acetate]
< 100 | COc1ccc(Nc2ccc3ncc(-c4cc5cccc(O)c5s4)n3n2)cc1OC [Compound 79, 2-(6-(3,4-dimethoxyphenylamino)imidazo[1,2-b]pyridazin-3-yl)benzo[b]thiophen-7-ol]
100 to 500 | COc1ccc(Nc2ccc3ncc(-c4cc5cccc(OC(C)C)c5s4)n3n2)cc1OC [Compound 80, 3-(7-isopropoxybenzo[b]thiophen-2-yl)-N-(3,4-dimethoxyphenyl)imidazo[1,2-b]pyridazin-6-amine]
500 to 1000 | CCCOc1cccc2cc(-c3cnc4ccc(Nc5ccc(OC)c(OC)c5)nn34)sc12 [Compound 81, N-(3,4-dimethoxyphenyl)-3-(7-propoxybenzo[b]thiophen-2-yl)imidazo[1,2-b]pyridazin-6-amine]
< 5000 | COc1ccc(Nc2ccc3ncc(-c4cc5cc(OC)c(OC)c(OC)c5s4)n3n2)cc1OC [Compound 83, 3-(5,6,7-trimethoxybenzo[b]thiophen-2-yl)-N-(3,4-dimethoxyphenyl)imidazo[1,2-b]pyridazin-6-amine]
< 5000 | COc1ccc(Nc2ccc3ncc(-c4ccc(CO)s4)n3n2)cc1OC [Compound 84, (5-(6-(3,4-dimethoxyphenylamino)imidazo[1,2-b]pyridazin-3-yl)thiophen-2-yl)methanol]
< 100 | COc1ccc2[nH]c(-c3cnc4ccc(N[C@H]5CC[C@H](O)CC5)nn34)cc2c1 [Compound 85, trans-4-(3-(5-methoxy-1H-indol-2-yl)imidazo[1,2-b]pyridazin-6-ylamino)cyclohexanol]
100 to 500 | COc1ccc2cc(-c3cnc4ccc(N[C@H]5CC[C@H](O)CC5)nn34)[nH]c2c1 [Compound 86, trans-4-(3-(6-methoxy-1H-indol-2-yl)imidazo[1,2-b]pyridazin-6-ylamino)cyclohexanol]
< 100 | COc1cccc2cc(-c3cnc4ccc(N[C@H]5CC[C@H](O)CC5)nn34)[nH]c12 [Compound 87, trans-4-(3-(7-methoxy-1H-indol-2-yl)imidazo[1,2-b]pyridazin-6-ylamino)cyclohexanol]
100 to 500 | O[C@H]1CC[C@H](Nc2ccc3ncc(-c4cc5ccccc5[nH]4)n3n2)CC1 [Compound 88, trans-4-(3-(1H-indol-2-yl)imidazo[1,2-b]pyridazin-6-ylamino)cyclohexanol]
500 to 1000 | O[C@H]1CC[C@H](Nc2ccc3ncc(-c4csc5ccccc45)n3n2)CC1 [Compound 90, trans-4-(3-(benzo[b]thiophen-3-yl)imidazo[1,2-b]pyridazin-6-ylamino)cyclohexanol]
< 5000 | Oc1cccc(-c2cnc3ccc(N[C@H]4CC[C@H](O)CC4)nn23)c1 [Compound 101, trans-3-(6-(4-hydroxycyclohexylamino)imidazo[1,2-b]pyridazin-3-yl)phenol]
< 5000 | Oc1ccc(-c2cnc3ccc(N[C@H]4CC[C@H](O)CC4)nn23)cc1 [Compound 102, trans-4-(6-(4-hydroxycyclohexylamino)imidazo[1,2-b]pyridazin-3-yl)phenol]
< 5000 | CCCN(C)c1ccc2ncc(-c3cc4ccccc4s3)n2n1 [Compound 107, 3-(benzo[b]thiophen-2-yl)-N-methyl-N-propylimidazo[1,2-b]pyridazin-6-amine]
500 to 1000 | OCCNc1ccc2ncc(-c3cc4ccccc4s3)n2n1 [Compound 108, 2-(3-(benzo[b]thiophen-2-yl)imidazo[1,2-b]pyridazin-6-ylamino)ethanol]
100 to 500 | OCCCNc1ccc2ncc(-c3cc4ccccc4s3)n2n1 [Compound 109, 3-(3-(benzo[b]thiophen-2-yl)imidazo[1,2-b]pyridazin-6-ylamino)propan-1-ol]
100 to 500 | OCCCCNc1ccc2ncc(-c3cc4ccccc4s3)n2n1 [Compound 110, 4-(3-(benzo[b]thiophen-2-yl)imidazo[1,2-b]pyridazin-6-ylamino)butan-1-ol]
< 5000 | Cc1nc2ccc(N[C@H]3CC[C@H](O)CC3)nn2c1-c1cc2ccccc2s1 [Compound 111, 4-(3-(benzo[b]thiophen-2-yl)-2-methylimidazo[1,2-b]pyridazin-6-ylamino)cyclohexanol]
< 5000 | OCCN1CCN(c2ccc3ncc(-c4cc5ccccc5s4)n3n2)CC1 [Compound 119, 2-(4-(3-(benzo[b]thiophen-2-yl)imidazo[1,2-b]pyridazin-6-yl)piperazin-1-yl)ethanol]
< 5000 | OC[C@H]1CCCN1c1ccc2ncc(-c3cc4ccccc4s3)n2n1 [Compound 126, ((R)-1-(3-(benzo[b]thiophen-2-yl)imidazo[1,2-b]pyridazin-6-yl)pyrrolidin-2-yl)methanol]

IC50 [nM] | SMILES
< 5000 | OC[C@@H]1CCCN1c1ccc2ncc(-c3cc4ccccc4s3)n2n1 [Compound 127, ((S)-1-(3-(benzo[b]thiophen-2-yl)imidazo[1,2-b]pyridazin-6-yl)pyrrolidin-2-yl)methanol]
< 5000 | COC(=O)C1CCCN(c2ccc3ncc(-c4cc5ccccc5s4)n3n2)C1 (stereo not shown) [Compound 131, methyl 1-(3-(benzo[b]thiophen-2-yl)imidazo[1,2-b]pyridazin-6-yl)piperidine-3-carboxylate]
500 to 1000 | OCC1CCCN(c2ccc3ncc(-c4cc5ccccc5s4)n3n2)C1 (stereo not shown) [Compound 132, (1-(3-(benzo[b]thiophen-2-yl)imidazo[1,2-b]pyridazin-6-yl)piperidin-3-yl)methanol]
100 to 500 | OCCCCCNc1ccc2ncc(-c3cc4ccccc4s3)n2n1 [Compound 135, 5-(3-(benzo[b]thiophen-2-yl)imidazo[1,2-b]pyridazin-6-ylamino)pentan-1-ol]
< 5000 | CN1CCN(CCCNc2ccc3ncc(-c4cc5ccccc5s4)n3n2)CC1 [Compound 136, 3-(benzo[b]thiophen-2-yl)-N-(3-(4-methylpiperazin-1-yl)propyl)imidazo[1,2-b]pyridazin-6-amine]
100 to 500 | CC(CO)CCNc1ccc2ncc(-c3cc4ccccc4s3)n2n1 (stereo not shown) [Compound 138, 4-(3-(benzo[b]thiophen-2-yl)imidazo[1,2-b]pyridazin-6-ylamino)-2-methylbutan-1-ol]
100 to 500 | OC[C@H]1CC[C@H](Nc2ccc3ncc(-c4cc5ccccc5s4)n3n2)CC1 [Compound 139]
< 5000 | CCCNc1ccc2ncc(-c3ccc4[nH]ccc4c3)n2n1 [Compound 140, 3-(1H-indol-5-yl)-N-propylimidazo[1,2-b]pyridazin-6-amine]
< 5000 | CC(C)CNc1ccc2ncc(-c3ccc4[nH]ccc4c3)n2n1 [Compound 142, 3-(1H-indol-5-yl)-N-isobutylimidazo[1,2-b]pyridazin-6-amine]
< 5000 | c1cc2cc(-c3cnc4ccc(NCC5CC5)nn34)ccc2[nH]1 [Compound 150, N-(cyclopropylmethyl)-3-(1H-indol-5-yl)imidazo[1,2-b]pyridazin-6-amine]
< 5000 | CCCN(C)c1ccc2ncc(-c3ccc4[nH]ccc4c3)n2n1 [Compound 158, 3-(1H-indol-5-yl)-N-methyl-N-propylimidazo[1,2-b]pyridazin-6-amine]
500 to 1000 | OCCCCNc1ccc2ncc(-c3ccc4ccccc4c3)n2n1 [Compound 160, 4-(3-(naphthalen-3-yl)imidazo[1,2-b]pyridazin-6-ylamino)butan-1-ol]
100 to 500 | O[C@H]1CC[C@H](Nc2ccc3ncc(-c4ccc5ccccc5c4)n3n2)CC1 [Compound 161, trans-4-(3-(naphthalen-3-yl)imidazo[1,2-b]pyridazin-6-ylamino)cyclohexanol]
500 to 1000 | O[C@H]1CC[C@H](Nc2ccc3ncc(-c4ccc5cc(F)ccc5c4)n3n2)CC1 [Compound 162, trans-4-(3-(2-fluoronaphthalen-6-yl)imidazo[1,2-b]pyridazin-6-ylamino)cyclohexanol]
500 to 1000 | COc1ccc2cc(-c3cnc4ccc(N[C@H]5CC[C@H](O)CC5)nn34)ccc2c1 [Compound 163, trans-4-(3-(2-methoxynaphthalen-6-yl)imidazo[1,2-b]pyridazin-6-ylamino)cyclohexanol]
500 to 1000 | Cc1c(-c2cnc3ccc(N[C@H]4CC[C@H](O)CC4)nn23)sc2ccc(Cl)cc12 [Compound 164, trans-4-(3-(5-chloro-3-methylbenzo[b]thiophen-2-yl)imidazo[1,2-b]pyridazin-6-ylamino)cyclohexanol]
500 to 1000 | O[C@H]1CC[C@H](Nc2ccc3ncc(-c4cc5cc(F)ccc5s4)n3n2)CC1 [Compound 166, trans-4-(3-(5-fluorobenzo[b]thiophen-2-yl)imidazo[1,2-b]pyridazin-6-ylamino)cyclohexanol]
100 to 500 | COc1ccc2sc(-c3cnc4ccc(Nc5ccc(OC)c(OC)c5)nn34)cc2c1 [Compound 167, 3-(5-methoxybenzo[b]thiophen-2-yl)-N-(3,4-dimethoxyphenyl)imidazo[1,2-b]pyridazin-6-amine]
100 to 500 | COc1ccc2sc(-c3cnc4ccc(N[C@H]5CC[C@H](O)CC5)nn34)cc2c1 [Compound 168, trans-4-(3-(5-methoxybenzo[b]thiophen-2-yl)imidazo[1,2-b]pyridazin-6-ylamino)cyclohexanol]
< 100 | COc1cc2cc(-c3cnc4ccc(NCCC(C)CO)nn34)sc2cc1OC (stereo not shown) [Compound 171, 4-(3-(5,6-dimethoxybenzo[b]thiophen-2-yl)imidazo[1,2-b]pyridazin-6-ylamino)-2-methylbutan-1-ol]
